This is an account of results in the NIST ThermoML archive (doi:10.1016/j.jct.2018.12.022).

The conditions of data set [1]: 298.15 K, 101.33 kPa, Liquid.
The nature of data set [2]: refractive index (Na D-line) (dimensionless). As to conditions: 298.15 K; 101.33 kPa; Liquid; Standard Abbe refractometry.

± gives the expanded uncertainty stated by the source.

For the compound `C[C@H](N)C(=O)[O-].C[N+](C)(C)CCO` [2-hydroxy-N,N,N-trimethylethanaminium L-alaninate], the viscosity in data set [1] (Falling or rolling sphere viscometry) is 715 ± 70 mPa·s. Also, in data set [1] (Vibrating tube method), the mass density worked out at 1122.56 ± 1.1 kg/m3. Moreover, in data set [2], the refractive index amounted to 1.4868 ± 0.0006.
